Data: patent publication US12208080B2, “Compositions and methods for modulation of extracellular vesicle release and treatment of neurological disorders” (GEORGE MASON RESEARCH FOUNDATION, INC., priority 2018, dated 2025)

Key:
[1] = test system: RNA polymerase II (Pol II) loading; assay: Chromatin immunoprecipitation of Pol II, qPCR for TAR DNA; format: cell-based; conditions: U1; CBD 10 μM, Flavo 50 nM; 2-hour and 6-hour; FIG. 15C
Description: FIGS. 15A-15C are graphs and gels showing cannabidiols lower intracellular viral transcription and downstream viral products. U1 cells (1×10^6) were treated with a titration of CBD (1, 5, 10 μM) and THC (1, 5, 10 μg/mL) every day for 5 days. A) Intracellular RNA was isolated and analyzed through RT-qPCR for HIV-1 viral transcripts TAR and env. Each bar represents an average of three independent replicates. B) U1 cells (2×10^6) were treated with a titration of CBD (1, 5, 10 μM) every day for 5 days. Cells pellets were lysed, run through SDS-PAGE, and western blotted for (p-)/NF-κB, autophagosomal markers (p63, LC3), EV biogenesis marker VPS4, viral markers (gp120, Nef, p24), and Actin. C) U1 cells (5×10^6) were treated±CBD (10 μM) and Flavopiridol hydrochloride (50 nM; indicated as Flavo) and incubated for the following time points: 0 minutes, 2 hours and 6 hours. Cells were cross-linked with 1% formaldehyde solution and ChIP-ed for IgG and Pol II. ChIP DNA samples were analyzed via qPCR for TAR and env. Student's t-test was used for statistical analysis, where *p-value≤0.05; **p-value≤0.01, ***p-value≤0.001. […]
U1 monocytes were treated with CBD (10 μM) and Flavo (50 nM) for short periods (0, 2 and 6 hours) due to the fact that HIV-1 transcription activity is a rapid event that can be scored using chromatin immunoprecipitation (ChIP) assay for factor occupancy. […]

[2] = test system: HIV-1 89.6 infected 3D neurospheres; assay: RT-qPCR of viral RNA transcripts in infected 3D neurospheres; format: cell-based
Description: FIGS. 22A-22D are graphs, gels, schematics, and images showing cannabidiol lowers viral transcripts in 3D neurospheres. A) Differential workflow of 3D neurospheres. B) Phase contrast microscopic images of three 3D neurospheres taken where scale bar=100 um. D) 3D neurospheres were treated±89.6 viral strain±cART (10 μM; Tenofovir, Emtricitabine, Lamuvidine, and Indinavir)±CBD titration (5 and 10 μM) and incubated for 7 days. RNA was isolated from the 3D neurospheres and supernatants, followed by RT-qPCR analysis for viral RNA transcripts TAR, TAR-gag, env. Student's t-test was used for statistical analysis, where *p-value≤0.05; **p-value≤0.01, ***p-value≤0.001.
Neural Progenitor Cells (NPCs; Cat: ACS-5003; ATCC) were grown using STEMdiff™ Neural Progenitor Medium (STEMCELL Technologies™) and differentiated into 3D neurospheres (1×10^5 cells/well) using DMEM:F12 (Cat: 30-2006; ATCC)+Neural Progenitor Cell Dopaminergic Differentiation Kit (Cat: ACS-3004; ATCC) for an incubation period of 14 d. Inverted microscopy using Zen imaging software (Zeiss) was used to develop phase contrast images. Neurospheres were infected with HIV-1 89.6 dual-tropic strain (MOI: 10) and 10 μL of Infectin™ (Virongy, LLC) with a total volume of 200 μL, followed by 48 h incubation period. Neurospheres were then gently washed with 1×PBS±treated twice with 10 μM cocktail (Lamivudine, Tenofovir, Emtricitabine, Indinavir)±treatment (every other day) with a titration of CBD (5 and 10 μM) for a seven-day incubation period. Neurospheres were lysed in 100 μL lysis buffer and total lysates were run on a 4-20% Tris-Glycine SDS-PAGE, followed by western blot assessment. For RT-qPCR analysis, RNA was isolated from neurospheres, followed by RT-qPCR analysis.
Next, the levels of intracellular viral RNA transcripts were assessed to determine the effects of CBD treatment on HIV-1 infected neurospheres. Prior to these experiments, the expression of relevant receptors in neurospheres were confirmed including Cannabinoid receptors CB1 and CB2, as well as the serotonin receptor 5-HT1A and the Vanilloid receptor which have been previously found to bind cannabinoids (FIG. 24). We then performed RT-qPCR analysis to quantify the expression of TAR, gag, and env.

[3] = CBD 10 μM with cART vs cART, 7 days, FIG. 22D lanes 3 vs 5

## C=C(C)[C@@H]1CCC(C)=C[C@H]1c1c(O)cc(CCCCC)cc1O [CBD, 2-[1R-3-methyl-6R-(1-methylethenyl)-2-cyclohexen-1-yl]-5-pentyl-1,3-benzenediol]
[1]
  Pol II-associated TAR DNA versus untreated: statistically significant decreases
[2]; [3]
  TAR RNA: signification reduction
  env RNA: signification reduction
  gag RNA: signification reduction
[2]; lower concentrated CBD treatment (5 μM)
  altering viral transcripts in neurospheres: low efficacy
